The values below come from US20040091479A1, “T-cell epitope of the papillomavirus l1 and e7 protein and use thereof in diagnostics and therapy” (priority 2000, published 2004).

Where a SMILES comes first, the peptide text is derived from it.

Series [1] concerns peptide-stimulated murine CD8-positive T cells. Description: Restimulating HPV18 peptide-stimulated murine T cells with peptide-presenting LKK cells (IFNγ FACScan). The series is classed as cell-based, C3H mice. The settings on record: for proportion of CD8-positive T cells reactive on the basis of IFNγ expression: 1 μg peptide/ml, LKK cells, T cells of HPV18 CVLP-inoculated C3H mice, FIG. 3, 4; for T cell epitope assignment: conclusion from FIG. 3, 4. As to the method:
Murine T cells (4×10^5) derived from C3H mice inoculated with HPV18 L1ΔCDIE71-53DI CVLPs and HPV18 L1ΔCDIE71-6ODI CVLPs were stimulated for 5 weeks with HPV18 L1 or E7 peptide pools at 37° C., with the weekly addition of 1 μg of each individual peptide/ml and 10^5 antigen-presenting cells (irradiated splenocytes), and harvested. The cells were then restimulated, at 37° C. and in 100 μl of medium, with 1 μg of the peptides given on the X axis in FIG. 3/ml and 10^5 antigen-presenting cells (LKK) in the presence of 10 IU of IL2/ml. Cells which were only incubated with buffer served as the negative control.
1 μl of monensin (300 μm) was added after an hour. The cells were incubated at 37° C. for a further 5 hours. The cells were then fixed and permeabilized and stained with α-mouse CD8/PE, with α-mouse CD4/cychrome and with α-mouse interferony/FITC. The labeling of the cells was analyzed in a FACScan Calibur and the results of the measurement were analyzed using Cellquest software.

The subject of series [2] is CVLP-stimulated human CD4-positive T cells. The series is described as follows: Restimulating HPV18 CVLP-stimulated T cells with BLCL presenting HPV18 peptide pools (example 6). Particulars: peptide common to two reactive HPV18 pools; CD4/IFNγ. Type of series: cell-based. As to the method: Human T cells (4×10^5) from a non-HLA-typed blood donor were stimulated for 1 week with HPV18 L1ΔCDIE71-53DI CVLPs and HPV18 L1ΔACDIE71-60DI CVLPS, 800 U of human GM-CSF/ml and 500 U of human IL4/ml and also, for a further 5 weeks, with HPV18 L1ΔCDIE71-53DI CVLPs and HPV18 L1ΔCDIE71-6ODI CVLPs at 37° C., with the weekly addition of 1 μg of the CVLPs mixLure (ratio of the two constructs 1:1)/ml and 10^5 antigen-presenting cells (irradiated PMBC), and harvested.
The 20 mer peptides Q1 to 52 were assembled into peptide pools A to H and 1 to 7, respectively, in accordance with the matrix
The T cells were then restimulated, at 37° C. and in 100 μl of medium, with the peptide pools and 10^5 antigen-presenting cells (donor-identical BLCL) in the presence of 10 IU of IL2/ml. The quantities of the peptide pools which were used in this connection were such that. 1 μg/ml was added in the case of each individual peptide.
Cells which were only incubated with buffer served as the negative control while cells incubated with the HPV18 L1 peptide pool and the HPV18 E7 peptide pool, respectively, served as positive controls.
1 μl of monensin was added after an hour. The cells were then incubated at 37° C. for a further 5 hours. After that, the cells were fixed and permeabilized and stained with α-human CD8/APC, with α-human CD4/PerCP and with α-human IFNγ/FITC. The labeling of the cells was analyzed in a FACScan Calibur and the results of the measurements were analyzed using Cellquest software.

The subject of series [3] is CVLP-stimulated CD8-positive T cells. Description: Restimulating HPV16 CVLP-stimulated T cells with BLCL presenting HPV16 peptide pools (example 10). Type of series: cell-based, human. Particulars: peptide common to two reactive HPV16 pools. As to the method:
(§1) In analogy with example 6, human T cells derived from a non-HLA-typed blood donor were stimulated with HPV16L1ΔC*E71-55 CVLPs and harvested.
(§2) The T cells were then restimulated, at 37° C. and in 100 μl of medium, with the peptide pools from example 7 and 10^5 antigen-presenting cells (donor-identical BLCL) in the presence of 10 IU of IL2/ml. Use was made, in this connection, of quantities of the peptide pools which was such that 1 μg/ml was added in the case of each individual peptide. Cells which were only incubated with buffer served as the negative control while cells which were incubated with HPV16 L1 peptide pool served as positive controls.
(§3) 1 μl of monensin was added after an hour. The cells were then incubated at 37° C. for a further 5 hours. After that, the cells were fixed and permeabilized and stained with α-human CD8/APC, with α-human CD4/PerCP and with α-human IFNγ/FITC. The labeling of the cells was examined in a FACScan Calibur and the results of the measurements were analyzed using Cellquest software.

The subject of series [4] is HPV18 L1 peptide pool-stimulated CD8-positive T cells. The series is described as follows: Restimulating HPV18 L1 peptide-stimulated T cells with Q9-presenting BLCL (example 8). The series is classed as cell-based, human. On the procedure:
In analogy with example 3, human T cells (4×10^5) derived from an HLA A24-positive donor were stimulated for 3 weeks with the HPV18 L1 peptide pool, at 37° C., with the weekly addition of 1 μg of each individual peptide/ml and 10^5 antigen-presenting cells (irradiated PMBC), and harvested.
The cells were then restimulated, at 37° C. in 100 μl of medium, with 10 μg of the HPV18 L1 peptide Q9/ml and 10^5 antigen-presenting cells (donor-identical BLCL) in the presence of 10 IU of IL2/ml. Cells which were only incubated with buffer served as the negative control.
1 μl of monensin (300 μM) was added after an hour. The cells were then incubated at 37° C. for a further 5 hours. After that, the cells were then fixed and permeabilized and stained with α-human CD8/APC, with α-human CD4/PerCP and with α-human IFNγ/FITC. The labeling of the cells was examined in a FACScan Calibur and the results of the measurements were analyzed using Cellquest software.

Series [5] deals with RMA cells. Description: 51Cr release: lysing HPV18 peptide-loaded RMA cells (example 17). Type of series: cell-based, murine. The settings on record: for T cell epitope assignment: conclusion from FIG. 16 upper part; for specific lysis of target cells (51Cr release): peptide-loaded RMA cells, effector:target 20, FIG. 16 upper part. On the procedure: In analogy with example 4, RMA or LKK cells were radioactively labeled with ^51Cr and incubated with the peptides (Q43 and Q44 in the upper part of FIG. 16 and Q49 in the lower part of FIG. 16) which are plotted on the X axis. Cells without peptide served as negative controls. T cells which had previously been stimulated with the peptide pool were then added.
The lysis of the RMA cells or LKK cells by the T cells was measured by the release of the ^51Cr and calculated as described in example 4.

In series [6] the test system is HPV18 CVLP-stimulated human T cells. The series is described as follows: Restimulating HPV18 CVLP-stimulated T cells with BLCL presenting Q38, Q39, Q46 or Q47 (example 13). Type of series: cell-based. Particulars: conclusion from FIG. 12 top right. As to the method:
In analogy with example 6, human T cells (4×10^5) derived from a non-HLA-typed blood donor were stimulated with HPV18L1ΔCDIE71-53DI CVLPs and HPV18L1ΔCDIE71-60DI CVLPs and harvested.
The T cells were then restimulated, at 37° C. and in 100 μl of medium, with in each case 1 μg of peptide Q38, Q39, Q46 or Q47/ml and 10^5 antigen-presenting cells (donor-identical BLCL) in the presence of 10 IU of IL2/ml. Cells which were only incubated with buffer served as the negative control while cells which were incubated with the HPV18 L1 peptide pool or the E7 peptide pool served as positive controls.
as §3

The subject of series [7] is human T cells. The series is described as follows: Summary of examples 3 to 18: epitopes recognized by human T cells. Type of series: cell-based. Particulars: Table 3, HPV16 peptides, species human; TC cytotoxic, TH T helper.
The test system of series [8] is CVLP-stimulated T cells (CD4-positive). Description: Restimulating HPV16 CVLP-stimulated T cells with BLCL presenting pools or P39 (example 9; IFNγ and IL4). The series is classed as cell-based, human. Particulars: for T cell epitope assignment (TH2): peptide common to two reactive HPV16 pools, CD4/IL4. On the procedure: as §1, §2, §3
Series [9] deals with CVLP-stimulated CD8-positive T cells. The series is described as follows: Restimulating HPV16 CVLP-stimulated T cells with BLCL presenting HPV16 peptide pools (example 14). The series is classed as cell-based, human. The settings on record: peptide common to two reactive HPV16 pools; CD8/IFNγ. On the procedure:
as §1
The T cells were then restimulated, at 37° C. and in 100 μl of medium, with the peptide pools from example 7 and 10^5 antigen-presenting cells (donor-identical BLCL) in the presence of 10 IU of IL2/ml. Use was made, in this connection, of quantities of the peptide pools which were such that 1 μg/ml was added in the case of each individual peptide. Cells which were only incubated with buffer served as the negative control, while cells which were incubated with the HPV16 L1 or E7 peptide pool served as positive controls.
as §3

For the molecule “PYDKLKFWNVDLKEKFSLDL [Q41, HPV18 L1 441-460]”, in series [1], the “proportion of CD8-positive T cells reactive on the basis of IFNγ expression” value (“proportion … of IFNγ expression” below) was “brought about a restimulation” and the “T cell epitope assignment” value is recorded as “contain H2k-restricted cytotoxic T cell epitopes”. For the same molecule, the “T cell epitope assignment” value in series [2] is “contain T helper epitopes”.
Turning to “YLPPVPVSKVVSTDEYVART [P2, HPV16 L1 12-31]”, in series [3], the “T cell epitope assignment” value was “contain a cytotoxic T cell epitope”.
In the case of “GGNKQDIPKVSAYQYRVFRV [Q6, HPV18 L1 56-75]”, in series [2], the “T cell epitope assignment” value was “contains a T helper epitope”.
Turning to “SIYNPETQRLVWACAGVEIG [Q9, HPV18 L1 89-108]”, the “proportion … of IFNγ expression” value in [4] (10 μg Q9/ml, donor-identical BLCL, HLA A24-positive donor, FIG. 7) was “brought about a restimulation”. Moreover, in [4] (conclusion from FIG. 7), the “T cell epitope assignment” value is listed as “contains an HLA A24-restricted cytotoxic T cell epitope”.
As for “YPLGRKFLVQAGMHGPKATL [Q43, HPV18 L1 463-474 and E7 1-8]”, in [1], the “proportion … of IFNγ expression” value is listed as “brought about a restimulation” and the “T cell epitope assignment” value is reported as “contain H2k-restricted cytotoxic T cell epitopes”. Also, in series [5], the “T cell epitope assignment” value is “H2b-restricted cytotoxic T cell epitopes” and the “specific lysis of target cells (51Cr release)” value was “able to efficiently lyse”.
Consider `CC[C@H](C)[C@H](NC(=O)[C@H](C)NC(=O)[C@@H](NC(=O)[C@H](CO)NC(=O)[C@H](CCC(N)=O)NC(=O)[C@@H](NC(=O)[C@H](Cc1ccccc1)NC(=O)[C@H](CCCNC(=N)N)NC(=O)[C@H](Cc1ccc(O)cc1)NC(=O)[C@@H](NC(=O)[C@H](CC(=O)O)NC(=O)[C@@H](NC(=O)[C@H](CC(C)C)NC(=O)[C@H](CO)NC(=O)[C@@H](NC(=O)[C@@H](NC(=O)[C@@H]1CCCN1C(=O)[C@@H]1CCCN1C(=O)[C@@H]1CCCN1C(=O)[C@@H]1CCCN1)[C@@H](C)O)[C@@H](C)O)C(C)C)[C@@H](C)O)C(C)C)C(C)C)C(=O)O` [Q38], for which the “T cell epitope assignment (cytotoxic)” value in series [6] is listed as “contain cytotoxic T cell epitopes”.
“IYNPETQRL [HPV18 L1 90-98, contained in peptide Q9]”: the “T cell epitope assignment” value in series [4] (9mer within Q9, deduced from Q9 result and HLA A24 prediction) is on record as “HLA A24-restricted cytotoxic T cell epitope”.
For “RFVTSQAIACQKHTPPAPKE [P39, HPV16 L1 419-438]”, in series [7], the Epitope type result was “TH1, TH2”. Also, in series [8] (CD4-positive and IFNγ-positive, pools G and 5 and P39 alone), the “T cell epitope assignment (TH1)” value is listed as “contains a T helper epitope”. In series [8] (HPV16 pools or P39, donor-identical BLCL, FIG. 8 top), the “proportion of CD4-positive and IFNγ-positive cells (TH1)” value is listed as “very high”. In [8], the “T cell epitope assignment (TH2)” value is listed as “contains a TH2 epitope”.
`CC[C@H](C)[C@H](NC(=O)[C@H](CCC(=O)O)NC(=O)[C@H](CC(=O)O)NC(=O)[C@H](CC(N)=O)NC(=O)[C@H](CCC(=O)O)NC(=O)[C@H](CCC(=O)O)NC(=O)[C@H](CCC(=O)O)NC(=O)[C@@H](N)CO)C(=O)N[C@@H](CC(=O)O)C(=O)NCC(=O)N[C@H](C(=O)N[C@@H](CC(N)=O)C(=O)N[C@@H](Cc1c[nH]cn1)C(=O)N[C@@H](CCC(N)=O)C(=O)N[C@@H](Cc1c[nH]cn1)C(=O)N[C@@H](CC(C)C)C(=O)N1CCC[C@H]1C(=O)N[C@@H](C)C(=O)N[C@@H](CCCNC(=N)N)C(=O)N[C@@H](CCCNC(=N)N)C(=O)O)C(C)C` [Q47] (H-SEEENDEIDGVNHQHLPARR-OH; N-terminus and C-terminus assumed): the “T cell epitope assignment (cytotoxic)” value in [6] is given as “contain cytotoxic T cell epitopes”.
For the molecule GLQYRVFRIHLPDPNKFGFP [P7], the “T cell epitope assignment” value in series [3] was “contain a cytotoxic T cell epitope”.
For “MALWRPSDNTVYLPPPSVAR [Q1, HPV18 L1 1-20]”, the “T cell epitope assignment” value in series [2] is “contain T helper epitopes”.
For the molecule “MHGPKATLQDIVLHLEPQNE [Q44, HPV18 E7 1-20]”, in series [1], the “proportion … of IFNγ expression” value is recorded as “brought about a restimulation” and the “T cell epitope assignment” value is “contain H2k-restricted cytotoxic T cell epitopes”. Besides, in [5], the “T cell epitope assignment” value is listed as “H2b-restricted cytotoxic T cell epitopes” and the “specific lysis of target cells (51Cr release)” value was “able to efficiently lyse”.
For “PPPGGTLEDTYRFVTSQAIA [P38, HPV16 L1 408-427]”, the Epitope type result in series [7] is “TH2”. Besides, in series [8], the “T cell epitope assignment (TH2)” value is on record as “contains a TH2 epitope”.
As for “VGHPYFPIKKPNNNKILVPK [P5, HPV16 L1 45-64]”, the “T cell epitope assignment” value in series [3] and in [9] was “contain a cytotoxic T cell epitope” throughout.
